Data as given in patent US8802597B2, “Herbicidal pyrimidines” (E I du Pont de Nemours and Company, priority 2003, dated 2014).
Where two headings read alike, the source gives them in different places.

Assays:
Type in all cases: in vivo
soybean (Glycine max) = experiment: Test C pre/postemergence; conditions: Glycine max; for plant injury at 31 g/ha: 31 g ai/ha; for plant injury at 62 g/ha: 62 g ai/ha; for plant injury at 125 g/ha: 125 g ai/ha; for plant injury at 250 g/ha: 250 g ai/ha
How it was run: (§1)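 Visual injury ratings, 0 (no effect) to 100 (complete control), made 12 to 14 days after treatment by comparison with untreated controls. Greenhouse plants received test chemical in a surfactant-containing non-phytotoxic solvent, either preemergence on planted seeds or postemergence at the 1- to 4-leaf stage.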

corn (Zea mays) = experiment: Test C pre/postemergence; conditions: Zea mays; for Corn plant response rating (crop injury, 0 = no effect, 100 = complete kill) at 31 g/ha: 31 g ai/ha; for Corn plant response rating (crop injury, 0 = no effect, 100 = complete kill) at 62 g/ha: 62 g ai/ha; for Corn plant response rating (crop injury, 0 = no effect, 100 = complete kill) at 125 g/ha: 125 g ai/ha
How it was run: as §1

[1] = tested on: goosegrass (Eleusine indica); experiment: Test C pre/postemergence; conditions: Eleusine indica; for pest or weed control at 31 g/ha: 31 g ai/ha; for pest or weed control at 62 g/ha: 62 g ai/ha; for pest or weed control at 125 g/ha: 125 g ai/ha; for pest or weed control at 250 g/ha: 250 g ai/ha
How it was run: as §1

[2] = tested on: lambsquarters (Chenopodium album); experiment: Test C pre/postemergence; conditions: Chenopodium album; for pest or weed control at 31 g/ha: 31 g ai/ha; for pest or weed control at 62 g/ha: 62 g ai/ha; for pest or weed control at 125 g/ha: 125 g ai/ha; for pest or weed control at 250 g/ha: 250 g ai/ha
How it was run: as §1

[3] = tested on: redroot pigweed (Amaranthus retroflexus); experiment: Test A pre/postemergence; conditions: Amaranthus retroflexus, 240 h, read-out: Plant response rating, Pigweed; for pest or weed control at 125 g/ha: 125 g ai/ha; for pest or weed control at 500 g/ha: 500 g ai/ha
How it was run: (§2)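 Compared with untreated controls, treated plants were visually rated for injury on a 0 (none) to 100 (complete control) scale about ten days after spraying. Pre- and postemergence applications used one solvent/surfactant formulation; postemergence plants measured 2–10 cm.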

[4] = tested on: crabgrass (Digitaria sanguinalis); experiment: Test A pre/postemergence; conditions: Digitaria sanguinalis, 240 h, read-out: Plant response rating, Crabgrass; for pest or weed control at 125 g/ha: 125 g ai/ha; for pest or weed control at 500 g/ha: 500 g ai/ha
How it was run: as §2

[5] = tested on: velvetleaf (Abutilon theophrasti); experiment: Test A pre/postemergence; conditions: Abutilon theophrasti, 240 h, read-out: Plant response rating, Velvetleaf; for pest or weed control at 125 g/ha: 125 g ai/ha; for pest or weed control at 500 g/ha: 500 g ai/ha
How it was run: as §2

[6] = tested on: morningglory (Ipomoea spp.); experiment: Test A pre/postemergence; conditions: Ipomoea, 240 h, read-out: Plant response rating, Morningglory; for pest or weed control at 125 g/ha: 125 g ai/ha; for pest or weed control at 500 g/ha: 500 g ai/ha
How it was run: as §2

[7] = tested on: giant foxtail (Setaria faberi); experiment: Test A pre/postemergence; conditions: Setaria faberi, 240 h, read-out: Plant response rating, Foxtail, Giant; for pest or weed control at 125 g/ha: 125 g ai/ha; for pest or weed control at 500 g/ha: 500 g ai/ha
How it was run: as §2

[8] = tested on: barnyardgrass (Echinochloa crus-galli); experiment: Test A pre/postemergence; conditions: Echinochloa crus-galli, 240 h, read-out: Plant response rating, Barnyardgrass; for pest or weed control at 125 g/ha: 125 g ai/ha; for pest or weed control at 500 g/ha: 500 g ai/ha
How it was run: as §2

[9] = tested on: chickweed (Stellaria media); experiment: Test C postemergence; conditions: Stellaria media, post-emergence
How it was run: as §1

[10] = post-emergence, Postemergence, scale 0 to 100 (0 no effect, 100 complete control), read-out: Soybean plant response rating
[11] = pre-emergence, Preemergence, scale 0 to 100, 0 no effect, 100 complete control, read-out: Plant response rating, Soybean
[12] = pre-emergence, Preemergence, scale 0 to 100, read-out: Plant response rating, Soybean
[13] = post-emergence, Postemergence, scale 0 to 100 (0 no effect, 100 complete control), read-out: Corn plant response rating
[14] = pre-emergence, Preemergence, scale 0 to 100, 0 no effect, 100 complete control, read-out: Plant response rating, Corn
[15] = post-emergence, Postemergence, scale 0 to 100 (0 no effect, 100 complete control), read-out: Goosegrass plant response rating
[16] = pre-emergence, Preemergence, scale 0 to 100, 0 no effect, 100 complete control, read-out: Plant response rating, Goosegrass
[17] = pre-emergence, Preemergence, scale 0 to 100, read-out: Plant response rating, Goosegrass
[18] = post-emergence, Postemergence, scale 0 to 100 (0 no effect, 100 complete control), read-out: Lambsquarters plant response rating
[19] = pre-emergence, Preemergence, scale 0 to 100, 0 no effect, 100 complete control, read-out: Plant response rating, Lambsquarters
[20] = pre-emergence, Preemergence, scale 0 to 100, read-out: Plant response rating, Lambsquarters
[21] = post-emergence, Postemergence, 0 to 100 scale (0 no effect, 100 complete control)
[22] = pre-emergence, Preemergence, 0 to 100 scale where 0 is no effect and 100 is complete control, approximately ten days

**Q.** `CCOC(=O)c1nc(-c2ccc(Cl)cc2)nc(N)c1Cl` [Compound 64, ethyl 6-amino-5-chloro-2-(4-chlorophenyl)-4-pyrimidinecarboxylate] was tested. Which plant injury at 31 g/ha (soybean (Glycine max); post-emergence, Postemergence, read-out: Plant response rating (scale of 0 to 100), Soybean) did it give?
**A.** 90%

**Q.** And the plant injury at 62 g/ha (soybean (Glycine max); [10])?
**A.** 90%

**Q.** What about the plant injury at 125 g/ha (soybean (Glycine max); [10]) of the same compound?
**A.** 100%

**Q.** And the plant injury at 250 g/ha (soybean (Glycine max); post-emergence, Postemergence, scale 0 to 100, read-out: Plant response rating, Soybean)?
**A.** 100%

**Q.** What about the plant injury at 31 g/ha (soybean (Glycine max); [11]) of the same compound?
**A.** 0%

**Q.** What about the plant injury at 62 g/ha (soybean (Glycine max); [11]) of the same compound?
**A.** 85%

**Q.** And the plant injury at 125 g/ha (soybean (Glycine max); [12])?
**A.** 85%

**Q.** And the plant injury at 250 g/ha (soybean (Glycine max); [12])?
**A.** 85%

**Q.** And the Corn plant response rating (crop injury, 0 = no effect, 100 = complete kill) at 31 g/ha (corn (Zea mays); post-emergence, Postemergence, read-out: Plant response rating (scale of 0 to 100), Corn)?
**A.** 20%

**Q.** What about the Corn plant response rating (crop injury, 0 = no effect, 100 = complete kill) at 62 g/ha (corn (Zea mays); [13]) of the same compound?
**A.** 50%

**Q.** What about the Corn plant response rating (crop injury, 0 = no effect, 100 = complete kill) at 125 g/ha (corn (Zea mays); [13]) of the same compound?
**A.** 50%

**Q.** What about the Corn plant response rating (crop injury, 0 = no effect, 100 = complete kill) at 31 g/ha (corn (Zea mays); [14]) of the same compound?
**A.** 0%

**Q.** And the Corn plant response rating (crop injury, 0 = no effect, 100 = complete kill) at 62 g/ha (corn (Zea mays); [14])?
**A.** 0%

**Q.** And the Corn plant response rating (crop injury, 0 = no effect, 100 = complete kill) at 125 g/ha (corn (Zea mays); pre-emergence, Preemergence, scale 0 to 100, read-out: Plant response rating, Corn)?
**A.** 20%

**Q.** And the Corn plant response rating (crop injury, 0 = no effect, 100 = complete kill) at 250 g/ha (corn (Zea mays); pre-emergence, Preemergence, 250 g ai/ha, scale 0 to 100)?
**A.** 30%

**Q.** What about the pest or weed control at 31 g/ha ([1]; post-emergence, Postemergence, read-out: Plant response rating (scale of 0 to 100), Goosegrass) of the same compound?
**A.** 35%

**Q.** What about the pest or weed control at 62 g/ha [1, 15] of the same compound?
**A.** 35%

**Q.** What about the pest or weed control at 125 g/ha [1, 15] of the same compound?
**A.** 60%

**Q.** And the pest or weed control at 250 g/ha ([1]; post-emergence, Postemergence, scale 0 to 100, read-out: Plant response rating, Goosegrass)?
**A.** 70%

**Q.** What about the pest or weed control at 31 g/ha [1, 16] of the same compound?
**A.** 0%

**Q.** And the pest or weed control at 62 g/ha [1, 16]?
**A.** 0%

**Q.** And the pest or weed control at 125 g/ha [1, 17]?
**A.** 0%

**Q.** What about the pest or weed control at 250 g/ha [1, 17] of the same compound?
**A.** 75%

**Q.** What about the pest or weed control at 31 g/ha ([2]; post-emergence, Postemergence, read-out: Plant response rating (scale of 0 to 100), Lambsquarters) of the same compound?
**A.** 80%

**Q.** What about the pest or weed control at 62 g/ha [2, 18] of the same compound?
**A.** 90%

**Q.** And the pest or weed control at 125 g/ha [2, 18]?
**A.** 90%

**Q.** And the pest or weed control at 250 g/ha ([2]; post-emergence, Postemergence, scale 0 to 100, read-out: Plant response rating, Lambsquarters)?
**A.** 90%

**Q.** And the pest or weed control at 31 g/ha [2, 19]?
**A.** 70%

**Q.** What about the pest or weed control at 62 g/ha [2, 19] of the same compound?
**A.** 95%

**Q.** What about the pest or weed control at 125 g/ha [2, 20] of the same compound?
**A.** 95%

**Q.** And the pest or weed control at 250 g/ha [2, 20]?
**A.** 100%

**Q.** And the pest or weed control at 125 g/ha [3, 21]?
**A.** 90%

**Q.** And the pest or weed control at 500 g/ha [3, 21]?
**A.** 100%

**Q.** What about the pest or weed control at 125 g/ha [3, 22] of the same compound?
**A.** 20%

**Q.** What about the pest or weed control at 500 g/ha [3, 22] of the same compound?
**A.** 100%

**Q.** What about the pest or weed control at 125 g/ha [4, 21] of the same compound?
**A.** 50%

**Q.** And the pest or weed control at 500 g/ha [4, 21]?
**A.** 70%

**Q.** And the pest or weed control at 125 g/ha [4, 22]?
**A.** 25%

**Q.** What about the pest or weed control at 500 g/ha [4, 22] of the same compound?
**A.** 90%

**Q.** What about the pest or weed control at 125 g/ha [5, 21] of the same compound?
**A.** 95%

**Q.** And the pest or weed control at 500 g/ha [5, 21]?
**A.** 100%

**Q.** And the pest or weed control at 125 g/ha [5, 22]?
**A.** 25%

**Q.** And the pest or weed control at 500 g/ha [5, 22]?
**A.** 95%

**Q.** What about the pest or weed control at 125 g/ha [6, 21] of the same compound?
**A.** 80%

**Q.** And the pest or weed control at 500 g/ha [6, 21]?
**A.** 95%

**Q.** What about the pest or weed control at 125 g/ha [6, 22] of the same compound?
**A.** 40%

**Q.** What about the pest or weed control at 500 g/ha [6, 22] of the same compound?
**A.** 70%

**Q.** And the pest or weed control at 125 g/ha [7, 21]?
**A.** 70%

**Q.** And the pest or weed control at 500 g/ha [7, 21]?
**A.** 80%

**Q.** What about the pest or weed control at 125 g/ha [7, 22] of the same compound?
**A.** 15%

**Q.** And the pest or weed control at 500 g/ha [7, 22]?
**A.** 70%

**Q.** And the pest or weed control at 125 g/ha [8, 21]?
**A.** 25%

**Q.** And the pest or weed control at 500 g/ha [8, 21]?
**A.** 70%

**Q.** What about the pest or weed control at 125 g/ha [8, 22] of the same compound?
**A.** 0%

**Q.** What about the pest or weed control at 500 g/ha [8, 22] of the same compound?
**A.** 60%

**Q.** And the pest or weed control at 31 g/ha ([9]; 31 g ai/ha, read-out: Plant response rating (scale of 0 to 100), Chickweed)?
**A.** 0%

**Q.** What about the pest or weed control at 62 g/ha ([9]; 62 g ai/ha, scale 0 to 100 (0 no effect, 100 complete control), read-out: Chickweed plant response rating) of the same compound?
**A.** 0%

**Q.** What about the pest or weed control at 125 g/ha ([9]; 125 g ai/ha, scale 0 to 100 (0 no effect, 100 complete control), read-out: Chickweed plant response rating) of the same compound?
**A.** 0%

**Q.** And the pest or weed control at 250 g/ha ([9]; 250 g ai/ha, scale 0 to 100, read-out: Plant response rating, Chickweed)?
**A.** 55%
